Reference: ChEMBL document CHEMBL1201862, “PubChem BioAssay data set” (2004)
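The compound was tested at five concentrations on cells cultured in 96-well plates, with a 48-hour exposure period. The concentration for 50% growth inhibition is given as GI50.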 Active and inactive are the calls of the source. Rule as the data show it: active = GI50 up to about 1.1 µM and inactive = higher.

Assays:
Experiment in all cases: NCI-60 cell line screen, 48 h
A549 = system: A549
HCC 2998 = system: HCC 2998
HL-60 = system: HL-60
HT-29 = system: HT-29
K562 = system: K562
KM12 = system: KM12
M14 = system: M14
Malme-3M = system: Malme-3M
OVCAR-4 = system: OVCAR-4
OVCAR-5 = system: OVCAR-5
OVCAR-8 = system: OVCAR-8
RPMI-8226 = system: RPMI-8226
SF-268 = system: SF-268
SK-MEL-2 = system: SK-MEL-2
SNB-75 = system: SNB-75
SW-620 = system: SW-620
TK-10 = system: TK-10
UACC-257 = system: UACC-257
UACC-62 = system: UACC-62
UO-31 = system: UO-31

SMILES | GI50 (A549) | GI50 (HCC 2998) | GI50 (HL-60) | GI50 (HT-29) | GI50 (K562) | GI50 (KM12) | GI50 (M14) | GI50 (Malme-3M) | GI50 (OVCAR-4) | GI50 (OVCAR-5) | GI50 (OVCAR-8) | GI50 (RPMI-8226) | GI50 (SF-268) | GI50 (SK-MEL-2) | GI50 (SNB-75) | GI50 (SW-620) | GI50 (TK-10) | GI50 (UACC-257) | GI50 (UACC-62) | GI50 (UO-31)
COC(=O)CCC(C)C1CCC2C3CCC4CC5CCC4(C)C3(O5)C(Br)C(Br)C12C (stereo unspecified) | > 100 µM (inactive) | > 100 µM (inactive) | 2.55 µM (inactive) | 56.2 µM (inactive) | > 100 µM (inactive) | > 100 µM (inactive) | > 100 µM (inactive) | > 100 µM (inactive) | > 100 µM (inactive) | > 100 µM (inactive) | > 100 µM (inactive) | 67.6 µM (inactive) | > 100 µM (inactive) | > 100 µM (inactive) | > 100 µM (inactive) | > 100 µM (inactive) | > 100 µM (inactive) | > 100 µM (inactive) | > 100 µM (inactive) | > 100 µM (inactive)
O=C(OCc1ccccc1)C(Cc1ccccc1)N(Cc1ccccc1)Cc1ccccc1 (stereo unspecified) | 65.9 µM (inactive) | 35.7 µM (inactive) | 36.7 µM (inactive) | > 100 µM (inactive) | 14.4 µM (inactive) | > 100 µM (inactive) | > 100 µM (inactive) | > 100 µM (inactive) | 28.8 µM (inactive) | > 100 µM (inactive) | > 100 µM (inactive) | 37.1 µM (inactive) | > 100 µM (inactive) | > 100 µM (inactive) | 16.5 µM (inactive) | > 100 µM (inactive) | > 100 µM (inactive) | 9.42 µM (inactive) | 80 µM (inactive) | 59 µM (inactive)
CCOC(=O)Cn1c(=O)c2cc(C)cc3c(Cl)nc4c(OC)c(OC)cc1c4c32 | > 100 µM (inactive) | > 100 µM (inactive) | > 100 µM (inactive) | > 100 µM (inactive) | > 100 µM (inactive) | > 100 µM (inactive) | > 100 µM (inactive) | 44.2 µM (inactive) | > 100 µM (inactive) | > 100 µM (inactive) | > 100 µM (inactive) | 36.5 µM (inactive) | 35.6 µM (inactive) | > 100 µM (inactive) | 30.8 µM (inactive) | > 100 µM (inactive) | > 100 µM (inactive) | > 100 µM (inactive) | > 100 µM (inactive) | > 100 µM (inactive)
CN1CCN(c2cc(-c3cc4ccccc4o3)oc(=O)c2C#N)CC1 | 70.8 µM (inactive) | > 100 µM (inactive) | 43.9 µM (inactive) | 78 µM (inactive) | 66.5 µM (inactive) | 99.3 µM (inactive) | > 100 µM (inactive) | > 100 µM (inactive) | 93.5 µM (inactive) | 50.1 µM (inactive) | 57.7 µM (inactive) | 75.5 µM (inactive) | 51.2 µM (inactive) | > 100 µM (inactive) | 80.4 µM (inactive) | > 100 µM (inactive) | 59.4 µM (inactive) | > 100 µM (inactive) |  | > 100 µM (inactive)
Oc1ccc(NCn2c(=S)sc3ccccc32)cc1 | > 100 µM (inactive) | > 100 µM (inactive) | 59.6 µM (inactive) | > 100 µM (inactive) | 22.3 µM (inactive) | > 100 µM (inactive) | > 100 µM (inactive) | > 100 µM (inactive) | 91 µM (inactive) | > 100 µM (inactive) | > 100 µM (inactive) | 26.2 µM (inactive) | > 100 µM (inactive) | > 100 µM (inactive) | 54.8 µM (inactive) | 42.7 µM (inactive) | > 100 µM (inactive) | > 100 µM (inactive) | 84.5 µM (inactive) | 89.9 µM (inactive)
COc1cc(/C=C2\N=C(c3ccccc3)N(c3ccc(C(=O)c4ccccc4)cc3N3C(=O)/C(=C/c4cc(OC)c(OC)c(OC)c4)N=C3c3ccccc3)C2=O)cc(OC)c1OC | 13.7 µM (inactive) | 2.94 µM (inactive) | 4.05 µM (inactive) | 29.1 µM (inactive) | 4.86 µM (inactive) | 13.2 µM (inactive) | 12.1 µM (inactive) | 13.8 µM (inactive) | 21.8 µM (inactive) | 30.8 µM (inactive) | 19.9 µM (inactive) | 9.73 µM (inactive) | 20.3 µM (inactive) | 9.77 µM (inactive) | 7.36 µM (inactive) | 7.57 µM (inactive) | 16.8 µM (inactive) | 15.2 µM (inactive) | 9.48 µM (inactive) | 16 µM (inactive)
Cc1ccc(S(=O)(=O)N(CC(=O)O)c2ccccc2)cc1 | > 100 µM (inactive) | > 100 µM (inactive) | > 100 µM (inactive) | > 100 µM (inactive) | > 100 µM (inactive) | > 100 µM (inactive) | > 100 µM (inactive) | > 100 µM (inactive) | > 100 µM (inactive) | > 100 µM (inactive) | > 100 µM (inactive) | > 100 µM (inactive) | > 100 µM (inactive) | > 100 µM (inactive) | > 100 µM (inactive) | > 100 µM (inactive) | > 100 µM (inactive) | > 100 µM (inactive) | > 100 µM (inactive) | > 100 µM (inactive)
COc1cccc2c1C(=O)c1c(O)c3c(c(O)c1C2=O)C[C@@](O)(C(=O)CO)C[C@@H]3OC1CC(N2CCOCC2)C(O)C(C)O1 (stereo partly specified) | 0.00628 µM (active) | 0.0127 µM (active) | 0.0025 µM (active) | 0.00628 µM (active) | 0.0025 µM (active) | 0.0246 µM (active) | 0.0324 µM (active) | 0.00259 µM (active) | 0.0201 µM (active) | 0.00275 µM (active) | 0.0025 µM (active) | 0.0025 µM (active) | 0.0239 µM (active) | 0.0025 µM (active) | 0.0025 µM (active) | 0.00791 µM (active) | 0.0485 µM (active) | 0.00267 µM (active) |  | 0.0025 µM (active)
CC(C)NC(=O)CN1CCN(C2=C(Cl)C(=O)c3c(O)ccc(O)c3C2=O)CC1 | 8.13 µM (inactive) | 2.92 µM (inactive) | 0.187 µM (active) | 1.26 µM (inactive) | 0.341 µM (active) | 6.5 µM (inactive) | 1.46 µM (inactive) | 1.04 µM (active) | 1.71 µM (inactive) | 2.92 µM (inactive) | 0.861 µM (active) | 1.99 µM (inactive) | 1.82 µM (inactive) | 1.49 µM (inactive) | 3.46 µM (inactive) | 0.546 µM (active) | 2.07 µM (inactive) | 1.79 µM (inactive) | 1.73 µM (inactive) | 1.03 µM (active)
CC(=O)OC1CC2(O)C(CCC3(C)C(c4ccc(=O)oc4)CCC32O)C2(C)C1=CC(O)C1OC12 (stereo unspecified) | 0.028 µM (active) | 0.114 µM (active) | 0.0575 µM (active) | 0.135 µM (active) | 0.0467 µM (active) | 0.067 µM (active) |  | 0.0419 µM (active) | 0.0457 µM (active) | 0.239 µM (active) | 0.0349 µM (active) | 0.0675 µM (active) | 0.0295 µM (active) | 0.0724 µM (active) | 0.0624 µM (active) | 0.0387 µM (active) |  | 0.0441 µM (active) | 0.0457 µM (active) | 0.0713 µM (active)
Cc1ccc2cc3cccc(C(=O)NCCN(C)C)c3nc2c1 | 0.644 µM (active) | 1.49 µM (inactive) | 0.565 µM (active) | 0.449 µM (active) | 0.69 µM (active) | 1.54 µM (inactive) |  | 1.06 µM (active) | 0.998 µM (active) | 1.47 µM (inactive) | 0.631 µM (active) | 0.807 µM (active) | 1.08 µM (active) | 1.87 µM (inactive) | 1.33 µM (inactive) | 0.514 µM (active) |  | 0.946 µM (active) | 1.37 µM (inactive) | 0.839 µM (active)
Oc1c(CNCCCN2CCCC2)cc(Cl)c2cccnc12 | 3.14 µM (inactive) | 3.1 µM (inactive) | 0.364 µM (active) | 5.3 µM (inactive) | 2.37 µM (inactive) | 4.05 µM (inactive) |  | 5.55 µM (inactive) | 3.92 µM (inactive) | 2.52 µM (inactive) | 3.24 µM (inactive) | 2.38 µM (inactive) | 3.27 µM (inactive) | 11.1 µM (inactive) | 13 µM (inactive) | 4.01 µM (inactive) |  | 11.4 µM (inactive) | 2.21 µM (inactive) | 3.76 µM (inactive)
CN1c2ccccc2C(=O)NC12CCN(CCCC(=O)c1ccc(F)cc1)CC2 | > 100 µM (inactive) | 19.7 µM (inactive) | 30.7 µM (inactive) | 23.1 µM (inactive) | 25.9 µM (inactive) | > 100 µM (inactive) | 15.5 µM (inactive) | 27.7 µM (inactive) | 87.3 µM (inactive) | > 100 µM (inactive) | > 100 µM (inactive) | 33.1 µM (inactive) | 17.8 µM (inactive) | > 100 µM (inactive) | 71.6 µM (inactive) | 50.4 µM (inactive) |  | 29 µM (inactive) | > 100 µM (inactive) | 80.4 µM (inactive)
